According to patent US9346809B2 (LEO PHARMA A/S, priority 2009, dated 2016):
Like-named read-outs stand apart in the source and are kept apart here.

Columns and labels:
Format in all cases: biochemical
[1] = target: T1, TYK2 (aa 871-1187, catalytic domain, GST-tag) (Homo sapiens, UniProt P29597); test: JAK kinase assay (HTRF, phosphorylation of TK substrate-biotin), TYK2; conditions: ATP at Km (13 μM), read-out: TYK2 kinase inhibitory activity (EC50 indicator)
T1 construct: JAK1 (aa 850-1154) and TYK2 (aa 871-1187) are expressed with an N-terminally fused GST-tag; GST (N); purchased Carna Biosciences, Inc; host or cells: baculovirus expression system
T1 sequence (P29597 871-1187): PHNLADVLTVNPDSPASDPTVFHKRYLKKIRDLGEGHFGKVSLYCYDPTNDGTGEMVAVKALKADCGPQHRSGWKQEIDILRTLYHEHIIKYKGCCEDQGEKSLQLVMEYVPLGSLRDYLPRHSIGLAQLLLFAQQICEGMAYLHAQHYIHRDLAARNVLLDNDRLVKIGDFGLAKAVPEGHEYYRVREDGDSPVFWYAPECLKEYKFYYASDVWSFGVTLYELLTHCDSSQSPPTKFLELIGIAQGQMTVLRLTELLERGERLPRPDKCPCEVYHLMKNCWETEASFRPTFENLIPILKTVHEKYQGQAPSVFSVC
How it was run: (§1)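 EC50 values come from HTRF detection of phospho-biotin-TK peptide (1 μM) after 20-30 min RT reactions in Hepes pH 7.0 buffer with 0.75% DMSO. ATP was at Km for each enzyme: 7 μM JAK1, 4 μM JAK2, 2 μM JAK3, 13 μM TYK2. SEB (50 nM) was added for JAK1 and TYK2 only.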

[2] = target: T2, JAK3 (catalytic domain, His-tag) (Homo sapiens, UniProt P52333); test: JAK kinase assay (HTRF, phosphorylation of TK substrate-biotin), JAK3; conditions: ATP at Km (2 μM), read-out: JAK3 kinase inhibitory activity (EC50 indicator)
T2 construct: All four purified enzymes contain only the catalytic domain; His (N); purchased Carna Biosciences, Inc; host or cells: baculovirus expression system
How it was run: as §1

[3] = target: T3, JAK1 (aa 850-1154, catalytic domain, GST-tag) (Homo sapiens, UniProt P23458); test: JAK kinase assay (HTRF, phosphorylation of TK substrate-biotin), JAK1; conditions: ATP at Km (7 μM), read-out: JAK1 kinase inhibitory activity (EC50 indicator)
T3 construct: JAK1 (aa 850-1154) and TYK2 (aa 871-1187) are expressed with an N-terminally fused GST-tag; GST (N); purchased Carna Biosciences, Inc; host or cells: baculovirus expression system
How it was run: as §1

[4] = target: T4, JAK2 (catalytic domain, His-tag) (Homo sapiens, UniProt O60674); test: JAK kinase assay (HTRF, phosphorylation of TK substrate-biotin), JAK2; conditions: ATP at Km (4 μM), read-out: JAK2 kinase inhibitory activity (EC50 indicator)
T4 construct: All four purified enzymes contain only the catalytic domain; His (N); purchased Carna Biosciences, Inc; host or cells: baculovirus expression system
How it was run: as §1

T4 sequence (O60674 849-1124 limits assumed): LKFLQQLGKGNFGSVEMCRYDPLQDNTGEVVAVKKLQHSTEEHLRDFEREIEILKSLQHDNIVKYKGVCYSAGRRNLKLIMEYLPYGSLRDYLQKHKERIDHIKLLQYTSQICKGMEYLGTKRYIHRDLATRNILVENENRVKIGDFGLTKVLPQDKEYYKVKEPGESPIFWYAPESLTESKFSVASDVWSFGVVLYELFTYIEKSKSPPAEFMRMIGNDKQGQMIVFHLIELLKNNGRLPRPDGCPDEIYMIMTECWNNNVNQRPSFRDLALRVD
T2 sequence (P52333 822-1111 limits assumed): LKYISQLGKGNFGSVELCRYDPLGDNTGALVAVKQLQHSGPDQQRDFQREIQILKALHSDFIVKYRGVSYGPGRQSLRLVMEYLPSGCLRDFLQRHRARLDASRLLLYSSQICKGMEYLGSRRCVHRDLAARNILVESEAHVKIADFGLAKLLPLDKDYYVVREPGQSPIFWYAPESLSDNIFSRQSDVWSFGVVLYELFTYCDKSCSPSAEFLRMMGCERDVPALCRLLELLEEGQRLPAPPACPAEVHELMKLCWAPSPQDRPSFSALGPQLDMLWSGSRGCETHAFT
T3 sequence (P23458 850-1154): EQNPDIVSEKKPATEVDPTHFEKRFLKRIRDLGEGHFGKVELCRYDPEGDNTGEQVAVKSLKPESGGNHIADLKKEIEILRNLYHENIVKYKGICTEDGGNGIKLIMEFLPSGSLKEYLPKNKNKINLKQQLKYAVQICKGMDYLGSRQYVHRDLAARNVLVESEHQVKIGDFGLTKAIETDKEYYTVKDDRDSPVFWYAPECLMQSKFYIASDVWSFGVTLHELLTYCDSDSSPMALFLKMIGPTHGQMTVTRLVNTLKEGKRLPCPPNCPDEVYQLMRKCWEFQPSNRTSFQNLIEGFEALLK

EC50 [1] [nM]	EC50 [2] [nM]	EC50 [3] [nM]	EC50 [4] [nM]	EC50 ([1]; HTRF assay) [nM]	EC50 ([2]; HTRF assay) [nM]	EC50 ([3]; HTRF assay) [nM]	EC50 ([4]; HTRF assay) [nM]	SMILES
–	–	–	–	> 500	100 to 500	> 500	100 to 500	COc1cnc2[nH]ccc2c1N1CCN(C(=O)c2ccc(C#N)c(F)c2)C2(CC2)C1 [Example 292, 2-Fluoro-4-[7-(5-methoxy-1H-pyrrolo[2,3-b]pyridin-4-yl)-4,7-diaza-spiro[2.5]octane-4-carbonyl]-benzonitrile]
–	–	–	–	100 to 500	100 to 500	< 100	< 100	CS(=O)(=O)c1cccc(C(=O)N2CCN(c3ncnc4[nH]ccc34)CC23CC3)c1 [Example 367, (3-Methanesulfonyl-phenyl)-[7-(7H-pyrrolo[2,3-d]pyrimidin-4-yl)-4,7-diaza-spiro[2.5]oct-4-yl]-methanone]

The remaining lines, values behind:

SMILES	EC50 [1] [nM]	EC50 [2] [nM]	EC50 [3] [nM]	EC50 [4] [nM]	EC50 ([1]; HTRF assay) [nM]	EC50 ([2]; HTRF assay) [nM]	EC50 ([3]; HTRF assay) [nM]	EC50 ([4]; HTRF assay) [nM]
O=C(c1ccc(=O)[nH]c1)N1CCN(c2ncnc3[nH]ccc23)CC12CC2 [Example 56, 5-[7-(7H-Pyrrolo[2,3-d]pyrimidin-4-yl)-4,7-diazaspiro[2.5]octane-4-carbonyl]-1H-pyridin-2-one]	> 500	100 to 500	< 100	< 100	–	–	–	–
O=C(c1cccc(C(F)(F)F)c1)N1CCN(c2ncnc3[nH]ccc23)CC12CC2 [Example 20, [7-(7H-Pyrrolo[2,3-d]pyrimidin-4-yl)-4,7-diazaspiro[2.5]oct-4-yl]-(3-trifluoromethylphenyl)methanone]	100 to 500	100 to 500	< 100	< 100	–	–	–	–
NS(=O)(=O)c1ccc(CC(=O)N2CCN(c3ncnc4[nH]ccc34)CC23CC3)cc1 [Example 191, 4-{2-Oxo-2-[7-(7H-pyrrolo[2,3-d]pyrimidin-4-yl)-4,7-diaza-spiro[2.5]oct-4-yl]-ethyl}-benzenesulfonamide]	> 500	< 100	< 100	< 100	–	–	–	–
